Data from patent US10639304B2, “Kinase inhibitors” (priority 2013, dated 2020).

Assays:
[1] = tested on: leukemic cells derived from ALL, AML, CML and CLL; test: Initial analysis of cytotoxicity in leukemic cells; type: cell-based; conditions: for toxicity to the leukemic cells tested: initial analysis of 12 compounds ALD-1 through ALD-12; for anti-leukemic activity: structure-activity summary
Experimental: (§1) The cells were seeded at an initial density of 50,000 cells per well in 100 μl of cell culture media constituted with or without drugs at increasing doses ranging from 1 to 10^7 fold. The assays were performed in 96-well cell culture plates which were maintained at 37° C. in 5% CO2 atmosphere for 24 h, 48 h, 72 h and 96 h. At the end of each incubation point; cell viability was measured by Cell Titer-Blue® Assay. The measurements were then expressed as the percentage of viable cells compared to the survival of respective control groups (untreated cells) defined as the maximum cell viability. The data obtained was further analyzed using Prism nonlinear regression software (Graphpad Software) for the curve-fitting and determination of IC50 values.

[2] = tested on: Gleevec resistant K562 cells; test: Cytotoxicity in Gleevec resistant K562 cells (Cell Titer-Blue); type: cell-based; conditions: for IC50: Homo sapiens, K562
Experimental: Hela (established from epithelioid cervical carcinoma), were purchased from the American Type Culture Collection (ATCC, Manassas, Va.). SN12C and ACHN cells were provided by Dr. Charles Sawyers. […] Normal lymphocyte 9093 was purchased from ATCC. K562 and normal lymphocytes were maintained in RPMI media (Life Technologies) supplemented with 20% fetal bovine serum (FBS). […] All cells were maintained at 37° C. under a humidified atmosphere of 95% air and 5% CO2.
as §1

T315I mutant Bcr-Abl = target: T1, T315I mutant Bcr-Abl (Homo sapiens, UniProt P00519, T315I); test: Bcr-Abl phosphorylation in K562 cells, Western blotting; type: cell-based; conditions: in the presence of Gleevec, FIGS. 5 and 6
T1 construct: K562 cells that express the T315I mutant Bcr-Abl; BCR (fusion partner, P11274 N-terminal part); endogenous in cells; host or cells: K562 (Gleevec-resistant); the other entry of the earlier key: BCR (P11274, Breakpoint cluster region protein)

Src = target: T2, Src (Homo sapiens, UniProt P12931); test: Src phosphorylation in K562 cells, Western blotting; type: cell-based; conditions: FIGS. 9 and 10
T2 construct: reduced the levels of phosphorylated Src in K562 cells; endogenous in cells; host or cells: K562

[3] = tested on: PARP cleavage in Gleevec-resistant CML cell lines; test: PARP cleavage (apoptosis marker), Western blotting; type: cell-based; conditions: FIG. 4
STAT5 = STAT5 phosphorylation in K562 cells, Western blotting; type: cell-based; conditions: FIG. 7
Crkl = Crkl phosphorylation in K562 cells, Western blotting; type: cell-based; conditions: FIG. 8
Lyn = target: T3, Lyn (Homo sapiens, UniProt P07948); test: Lyn phosphorylation in K562 cells, Western blotting; type: cell-based; conditions: FIG. 11
T3 construct: K562 cells were plated in 10 cm dishes; endogenous in cells; host or cells: K562

LCK = target: T4, LCK (Homo sapiens, UniProt P06239); test: LCK phosphorylation in K562 cells, Western blotting; type: cell-based; conditions: FIG. 11
T4 construct: K562 cells were plated in 10 cm dishes; endogenous in cells; host or cells: K562

Yes = target: T5, Yes (Homo sapiens, UniProt P07947); test: Yes phosphorylation in K562 cells, Western blotting; type: cell-based; conditions: FIG. 11
T5 construct: K562 cells were plated in 10 cm dishes; endogenous in cells; host or cells: K562

[4] = tested on: BV173-GFP, a Gleevec resistant chronic myeloid leukemic cells; test: Preclinical efficacy, BV173-GFP leukemia in NSG-B2m mice; type: in vivo; conditions: up to 250 mg/kg intraperitoneal for 5 weeks
Experimental: Two days after leukemia cell injection, the mice received intraperitoneal treatments of DMSO, or ALD-10 in DMSO. Following injection cells, the mice were randomized into two groups (6/group) to receive DMSO, or ALD-10. The mice received up to 250 mg/kg of ALD10 for 5 weeks. […] The median survival for ALD-10 and DMSO treated mice was 42 and 39 days, respectively.

Bcr-Abl = conditions: in vitro, more potent than imatinib; cited from earlier work

T2 sequence (P12931 whole entry): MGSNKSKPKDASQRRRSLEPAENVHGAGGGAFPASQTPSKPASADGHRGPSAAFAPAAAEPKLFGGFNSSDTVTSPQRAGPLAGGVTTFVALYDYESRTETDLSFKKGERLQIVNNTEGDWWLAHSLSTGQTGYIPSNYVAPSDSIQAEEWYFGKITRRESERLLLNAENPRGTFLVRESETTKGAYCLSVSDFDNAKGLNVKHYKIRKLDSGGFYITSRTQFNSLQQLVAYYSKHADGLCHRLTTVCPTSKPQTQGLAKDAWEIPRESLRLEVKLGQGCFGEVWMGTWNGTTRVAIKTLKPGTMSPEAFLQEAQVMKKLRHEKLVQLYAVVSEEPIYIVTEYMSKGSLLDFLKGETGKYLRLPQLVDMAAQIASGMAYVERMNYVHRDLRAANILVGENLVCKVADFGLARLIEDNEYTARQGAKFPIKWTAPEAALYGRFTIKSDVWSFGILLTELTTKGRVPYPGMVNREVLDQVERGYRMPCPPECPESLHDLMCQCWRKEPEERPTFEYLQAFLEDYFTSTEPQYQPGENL
T3 sequence (P07948 whole entry): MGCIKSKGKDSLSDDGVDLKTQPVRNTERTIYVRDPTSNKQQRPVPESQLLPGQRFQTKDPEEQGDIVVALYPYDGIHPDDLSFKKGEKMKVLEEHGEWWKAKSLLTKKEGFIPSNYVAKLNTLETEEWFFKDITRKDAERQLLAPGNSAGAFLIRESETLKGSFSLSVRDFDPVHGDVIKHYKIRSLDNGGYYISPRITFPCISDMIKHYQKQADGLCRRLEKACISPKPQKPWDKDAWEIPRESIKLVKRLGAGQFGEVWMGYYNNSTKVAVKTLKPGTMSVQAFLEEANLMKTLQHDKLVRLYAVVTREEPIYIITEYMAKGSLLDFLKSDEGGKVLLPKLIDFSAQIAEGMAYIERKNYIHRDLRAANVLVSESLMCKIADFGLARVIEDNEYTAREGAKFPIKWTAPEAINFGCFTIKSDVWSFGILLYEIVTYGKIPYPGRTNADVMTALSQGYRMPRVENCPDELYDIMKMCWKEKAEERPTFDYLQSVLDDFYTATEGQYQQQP
T4 sequence (P06239 whole entry): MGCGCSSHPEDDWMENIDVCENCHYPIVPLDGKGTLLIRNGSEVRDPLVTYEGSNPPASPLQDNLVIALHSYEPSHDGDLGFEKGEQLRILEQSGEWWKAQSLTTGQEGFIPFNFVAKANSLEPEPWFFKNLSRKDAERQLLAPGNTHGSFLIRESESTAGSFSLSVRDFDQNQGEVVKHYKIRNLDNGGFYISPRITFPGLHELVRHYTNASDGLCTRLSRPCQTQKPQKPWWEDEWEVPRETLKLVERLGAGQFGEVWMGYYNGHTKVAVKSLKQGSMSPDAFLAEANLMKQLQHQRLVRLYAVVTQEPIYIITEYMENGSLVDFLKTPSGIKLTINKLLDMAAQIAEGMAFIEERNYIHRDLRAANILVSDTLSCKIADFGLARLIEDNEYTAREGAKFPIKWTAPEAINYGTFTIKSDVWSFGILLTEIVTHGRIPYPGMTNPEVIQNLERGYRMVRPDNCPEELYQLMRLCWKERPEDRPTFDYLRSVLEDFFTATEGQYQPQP
T5 sequence (P07947 whole entry): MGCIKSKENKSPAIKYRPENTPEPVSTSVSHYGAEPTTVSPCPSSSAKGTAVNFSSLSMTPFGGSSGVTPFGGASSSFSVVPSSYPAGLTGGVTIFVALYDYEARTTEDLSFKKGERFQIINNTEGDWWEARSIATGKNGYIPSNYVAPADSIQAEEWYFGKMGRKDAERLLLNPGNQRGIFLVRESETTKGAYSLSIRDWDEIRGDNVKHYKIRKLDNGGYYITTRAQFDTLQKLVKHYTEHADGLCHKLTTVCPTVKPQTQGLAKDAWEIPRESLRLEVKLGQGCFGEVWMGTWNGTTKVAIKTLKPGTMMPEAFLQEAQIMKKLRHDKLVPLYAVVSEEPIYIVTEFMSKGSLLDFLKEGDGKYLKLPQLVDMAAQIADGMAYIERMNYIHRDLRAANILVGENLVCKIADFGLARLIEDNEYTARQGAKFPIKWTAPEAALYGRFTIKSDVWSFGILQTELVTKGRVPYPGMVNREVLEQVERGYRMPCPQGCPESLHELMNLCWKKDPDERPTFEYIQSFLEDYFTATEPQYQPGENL

Row | Compound | phosphorylation of Bcr-Abl Kinase (T315I mutant Bcr-Abl) | phosphorylation of Src (Src) | phosphorylation of Lyn (Lyn) | phosphorylation of Lck (LCK) | toxicity to the leukemic cells tested [1] | anti-leukemic activity [1] | cytotoxicity to Gleevec resistant CML (GRCML) ([2]; Gleevec resistant CML, cell line not named) | IC50 [2] [nM] | PARP cleavage (apoptotic cell death) [3] | STAT5 phosphorylation (STAT5) | CrkL phosphorylation (Crkl) | phosphorylation of Yes (Yes) | activity of the mice compared to DMSO treated mice [4] | liver tumor mass compared to DMSO treated mice [4] | median survival ([4]; DMSO 39 days, Log-rank P=0.0036, Gehan-Breslow-Wilcoxon P=0.0045) [days] | survival (Kaplan-Meier) ([4]; DMSO treated 40 days) [days] | cytotoxicity (in words) ([2]; Gleevec resistant K562 cells, FIG. 1) | affinity for the ATP binding site on Bcr-Abl relative to imatinib (Bcr-Abl)
1 | COC(=O)c1ccc(NC(=O)CSc2nc3cc4c(cc3cc2C)OCCO4)cc1 [ALD-1, 4-[2-(8-Methyl-2,3-dihydro-[1,4]dioxino[2,3-g]quinolin-7-ylsulfanyl)-acetylamino]-benzoic acid methyl ester] | – | – | – | – | non-toxic | – | – | – | – | – | – | – | – | – | – | – | – | –
2 | CCc1cc2cc3c(cc2nc1SCC(=O)Nc1ccc(OC)cc1OC)OCCO3 [ALD-4, N-(2,4-Dimethoxy-phenyl)-2-(8-ethyl-2,3-dihydro-[1,4]dioxino[2,3-g]quinolin-7-ylsulfanyl)-acetamide] | block phosphorylation | inhibited | – | – | toxic | anti-leukemic activity | highly cytotoxic | – | – | – | – | – | – | – | – | – | – | –
3 | CCc1cc2cc3c(cc2nc1SCC(=O)Nc1ccccc1C)OCCO3 [ALD-10, 2-(8-Ethyl-2,3-dihydro-[1,4]dioxino[2,3-g]quinolin-7-ylsulfanyl)-N-o-tolyl-acetamide] | block phosphorylation | inhibited | significantly inhibited | significantly inhibited | toxic | anti-leukemic activity | – | 74.6 | induction of PARP cleavage | inhibited | inhibited | significantly inhibited | considerably more active | reduced liver tumor mass | 42 | 48 | – | –
4 | Cc1cn(-c2cc(NC(=O)c3ccc(C)c(Nc4nccc(-c5cccnc5)n4)c3)cc(C(F)(F)F)c2)cn1 [Nilotinib] | – | – | – | – | – | – | – | – | – | – | – | – | – | – | – | – | – | up to 50 times

Further lines, with some results ahead:

Row | phosphorylation of Bcr-Abl Kinase (T315I mutant Bcr-Abl) | phosphorylation of Src (Src) | phosphorylation of Lyn (Lyn) | phosphorylation of Lck (LCK) | Compound | toxicity to the leukemic cells tested [1] | anti-leukemic activity [1] | cytotoxicity to Gleevec resistant CML (GRCML) ([2]; Gleevec resistant CML, cell line not named) | IC50 [2] [nM] | PARP cleavage (apoptotic cell death) [3] | STAT5 phosphorylation (STAT5) | CrkL phosphorylation (Crkl) | phosphorylation of Yes (Yes) | activity of the mice compared to DMSO treated mice [4] | liver tumor mass compared to DMSO treated mice [4] | median survival ([4]; DMSO 39 days, Log-rank P=0.0036, Gehan-Breslow-Wilcoxon P=0.0045) [days] | survival (Kaplan-Meier) ([4]; DMSO treated 40 days) [days] | cytotoxicity (in words) ([2]; Gleevec resistant K562 cells, FIG. 1) | affinity for the ATP binding site on Bcr-Abl relative to imatinib (Bcr-Abl)
5 | – | did not affect | not | not | CCc1cc2cc3c(cc2nc1SCC(=O)Nc1ccc(OC)cc1)OCCO3 [ALD-11, 2-(8-Ethyl-2,3-dihydro-[1,4]dioxino[2,3-g]quinolin-7-ylsulfanyl)-N-(4-methoxy-phenyl)-acetamide] | non-toxic | inactive | – | – | did not reveal PARP cleavage | did not affect | did not affect | – | – | – | – | – | not cytotoxic | –
6 | block phosphorylation | inhibited | significantly inhibited | significantly inhibited | CCc1cc2cc3c(cc2nc1SCC(=O)Nc1ccccc1OC)OCCO3 [ALD-12, 2-(8-ethyl-2,3-dihydro-[1,4]dioxino[2,3-g]quinolin-7-ylsulfanyl)-N-(2-methoxy-phenyl)-acetamide] | toxic | anti-leukemic activity | – | 69.7 | induction of PARP cleavage | inhibited | inhibited | significantly inhibited | – | – | – | – | – | –
